Data from article PMC11643578, “Cytotoxic and Antibacterial Cyclodepsipeptides from an Endophytic Fungus Fusarium avenaceum W8” (Molecules, 2024).
Values after ≈ are worked out from the molar mass of the structure shown. Like-named read-outs stand apart in the source and are kept apart here. Square brackets hold non-standard residues; d marks the D form. Peptide text beside a SMILES is read from it. Hica(2S) = CC(C)C[C@H](O)C(=O)O; dHica = CC(C)C[C@@H](O)C(=O)O; βAla = NCCC(=O)O

Key:
Format in all cases: cell-based
Staphylococcus aureus [1] = experiment: Antimicrobial activity assay (MIC80, OD600), S. aureus; settings: LB broth, 128-4 μg/mL, 37 °C, 24 h; for MIC80 against S. aureus: 96-well plate
Protocol: (§1) Strains of S. aureus and S. cerevisiae were used for the antimicrobial activity assay, and compounds 1–7 were evaluated as described. We resuscitated the bacteria and centrifuge them at 8000 rpm for 5 min at 4 °C; we then washed the precipitate twice with PBS. We diluted it with Luria-Bertani (LB) broth medium to the concentration of 5 × 10^5 CFU/mL. Strains were grown to OD600 = 0.3 in LB broth medium and diluted 400-fold. Aliquots (200 μL) of the diluted suspensions were placed into 96-well microtiter plates with isolated compounds at concentrations of 128, 64, 32, 16, 8, and 4 μg/mL and cultured at 37 °C for 24 h. Furazolidone was the positive control and DMSO was used as the negative control. The OD600 values were used to test the antimicrobial rate for MIC80.

Saccharomyces cerevisiae [2] = experiment: Growth time-OD600 curve at MIC80, S. cerevisiae; settings: compound at its MIC80 concentration, OD600 at 8-32 h, 37 °C, n = 3
Protocol: (§2) The strain was grown to OD600 = 0.3 in LB broth medium and diluted 100-fold. Aliquots (200 μL) of the diluted suspensions were placed into 96-well microtiter plates, and compounds 1 and 4 at the concentration of MIC80 were cultured in the plate at 37 °C. The absorbance value was measured at OD600 at 8 h, 12 h, 16 h, 20 h, 24 h, and 32 h.

Staphylococcus aureus [3] = experiment: Growth time-OD600 curve at MIC80, S. aureus; settings: compound at its MIC80 concentration, OD600 at 8-32 h, 37 °C, n = 3
Protocol: as §2

Saccharomyces cerevisiae [4] = experiment: Antimicrobial activity assay (MIC80, OD600), S. cerevisiae; settings: LB broth, 128-4 μg/mL, 37 °C, 24 h
Protocol: as §1

[5] = tested on: A549 human lung adenocarcinoma cell line; experiment: MTT cytotoxicity assay, A549; settings: A549 cells, 72 h treatment, absorbance 562 nm (reference 630 nm), read-out: IC50 Values, cytotoxicity against A549
Protocol: (§3) The cytotoxicity of the compound against A549 and NCI-1944 lines was determined by using 3-(4,5-dimethyl-2-thiazolyl)-2,5-diphenyl-2-H-tetrazolium bromide (MTT). The cells were maintained in DMEM containing 10% (v/v) fetal bovine serum (FBS) and 0.4% (v/v) penicillin−streptomycin solution (10,000 units/mL penicillin and 10,000 μg/mL streptomycin, 100X) at 37 °C under 5% CO2. After 24 h of adherent cell growth, different concentrations of the compounds, positive control adriamycin (ADM), and blank control (methanol) were added to 96-well plates. After 72 h, 20 μL of MTT solution was added. The absorbance value (detection wavelength is 562 nm and reference wavelength is 630 nm) was measured on the microplate reader, and the IC50 value of each compound was calculated.

[6] = tested on: NCI-H1944 human lung adenocarcinoma cell line; experiment: MTT cytotoxicity assay, NCI-H1944; settings: NCI-H1944 cells, 72 h treatment, absorbance 562 nm (reference 630 nm), read-out: IC50 Values, cytotoxicity against NCI-H1944
Protocol: as §3

CC(C)C[C@@H]1OC(=O)[C@H](Cc2ccccc2)NC(=O)[C@H](Cc2ccccc2)NC(=O)[C@H](Cc2ccccc2)NC(=O)[C@H](Cc2ccc(O)cc2)NC1=O [Compound 1, avenamide A] (cyclo([Hica(2S)]YFFF))
MIC80 against S. aureus (Staphylococcus aureus [1]): 20.25 µg/mL (≈ 28.2 µM) | growth time curve of S. cerevisiae (in words) (Saccharomyces cerevisiae [2]): exhibited antimicrobial activity against both strains during the measuring time | growth time curve of S. aureus (in words) (Staphylococcus aureus [3]): exhibited antimicrobial activity against both strains during the measuring time

CC[C@H](C)[C@@H]1NC(=O)[C@H](CC(C)C)NC(=O)[C@H](CC(C)C)NC(=O)CCNC(=O)[C@@H](CC(C)C)OC1=O [Compound 2, avenamide B] (cyclo([dHica][βAla]LLI))
antimicrobial activity against S. cerevisiae (in words) (Saccharomyces cerevisiae [4]): did not display strong antimicrobial activity | antimicrobial activity against S. aureus (in words) (Staphylococcus aureus [1]): did not display strong antimicrobial activity

CC(C)[C@H]1C(=O)O[C@H](C(C)C)C(=O)N(C)[C@@H](C(C)C)C(=O)O[C@H](C(C)C)C(=O)N(C)[C@@H](C(C)C)C(=O)O[C@H](C(C)C)C(=O)N1C [Compound 3, enniatin B]
MIC80 against S. cerevisiae (Saccharomyces cerevisiae [4]; 96-well plate): 16.92 µg/mL (≈ 26.4 µM) | MIC80 against S. aureus (Staphylococcus aureus [1]): 11.08 µg/mL (≈ 17.3 µM) | growth time curve of S. cerevisiae (in words) (Saccharomyces cerevisiae [2]): exhibited antimicrobial activity against both strains during the measuring time | growth time curve of S. aureus (in words) (Staphylococcus aureus [3]): exhibited antimicrobial activity against both strains during the measuring time

CC[C@H](C)[C@H]1OC(=O)[C@H](C(C)C)N(C)C(=O)[C@@H](C(C)C)OC(=O)[C@H](C(C)C)N(C)C(=O)[C@@H](C(C)C)OC(=O)[C@H](C(C)C)N(C)C1=O [Compound 4, enniatin H]
antimicrobial activity against S. cerevisiae (in words) (Saccharomyces cerevisiae [4]): did not display strong antimicrobial activity | antimicrobial activity against S. aureus (in words) (Staphylococcus aureus [1]): did not display strong antimicrobial activity

CC(C)C[C@@H]1NC(=O)[C@H](CC(C)C)NC(=O)[C@H](C(C)C)NC(=O)[C@H](CC(C)C)NC(=O)[C@@H](CC(C)C)NC1=O [Compound 5, cyclo-(L-Leu-L-Leu-D-Leu-L-Leu-L-Val)] (cyclo(LL[dL]LV))
IC50 [5]: < 50 µM | IC50 [6]: < 50 µM

CC[C@H](C)[C@@H]1NC(=O)[C@H](CC(C)C)NC(=O)[C@H](CC(C)C)NC(=O)[C@H](CC(C)C)NC(=O)[C@H](CC(C)C)NC1=O [Compound 6, cyclo-(L-Ile-L-Leu-L-Leu-L-Leu-L-Leu)] (cyclo(ILLLL))
IC50 [5]: < 50 µM | IC50 [6]: < 50 µM

COc1cccc2c1C(=O)c1c(O)c3c(c(O)c1C2=O)C[C@@](O)(C(=O)CO)C[C@@H]3O[C@H]1C[C@H](N)[C@H](O)[C@H](C)O1 [adriamycin, reference compound]
IC50 ([5]; Homo sapiens): 4.26 ± 0.17 µM | IC50 ([6]; Homo sapiens): 4.35 ± 0.27 µM
